One may read the IC50 as the concentration at which inhibition is half-maximal. Low readings indicate greater potency in that assay, high ones weaker potency in that assay.

Bounds are passed on as bounds.

The target in assay [1] is T1, Potassium voltage-gated channel subfamily A member 3 (Homo sapiens, UniProt P22001). Further details: species or system Blood.
Assay [2] has as its target T1, Potassium voltage-gated channel subfamily A member 3. In words: cell-based. Further details: species or system Blood.
Assay [3] shares this target. In kind it is cell-based, CHO-K1.

T1 sequence (P22001 whole entry): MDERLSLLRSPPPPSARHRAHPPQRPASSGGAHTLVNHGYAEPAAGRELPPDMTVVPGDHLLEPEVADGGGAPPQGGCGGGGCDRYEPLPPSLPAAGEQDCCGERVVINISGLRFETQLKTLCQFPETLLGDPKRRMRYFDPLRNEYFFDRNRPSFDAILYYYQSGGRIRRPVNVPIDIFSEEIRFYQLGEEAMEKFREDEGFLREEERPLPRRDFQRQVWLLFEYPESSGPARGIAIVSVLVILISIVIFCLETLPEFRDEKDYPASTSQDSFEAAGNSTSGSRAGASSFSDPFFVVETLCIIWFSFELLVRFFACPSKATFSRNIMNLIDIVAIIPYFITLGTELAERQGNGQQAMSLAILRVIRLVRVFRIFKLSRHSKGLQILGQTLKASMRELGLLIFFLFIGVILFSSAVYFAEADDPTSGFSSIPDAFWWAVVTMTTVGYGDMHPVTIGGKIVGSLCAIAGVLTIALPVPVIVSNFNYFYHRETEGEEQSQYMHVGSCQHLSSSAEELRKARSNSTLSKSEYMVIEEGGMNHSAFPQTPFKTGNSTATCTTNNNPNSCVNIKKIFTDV

On to `CC[C@H](C)[C@@H]1NC(=O)[C@@H](NC(=O)[C@H](CO)NC(=O)[C@@H](N)CCCNC(=N)N)CSSC[C@@H](C(=O)O)NC(=O)[C@H]([C@@H](C)O)NC(=O)CNC(=O)[C@@H]2CSSC[C@@H]3NC(=O)[C@H](CCC(N)=O)NC(=O)[C@H](Cc4ccccc4)NC(=O)[C@H](C)NC(=O)[C@H]([C@@H](C)O)NC(=O)[C@H](CSSC[C@H](NC(=O)[C@H](Cc4ccccc4)NC(=O)[C@H](CO)NC(=O)[C@H](CC(C)C)NC(=O)[C@H](CCCNC(=N)N)NC(=O)[C@H](Cc4ccc(O)cc4)NC(=O)[C@H](CCCCN)NC(=O)[C@H](CCSC)NC(=O)[C@H](CO)NC(=O)[C@H](Cc4cnc[nH]4)NC(=O)[C@H](CCCNC(=N)N)NC3=O)C(=O)N[C@@H](CCCNC(=N)N)C(=O)N[C@@H](CCCCN)C(=O)N[C@@H]([C@@H](C)O)C(=O)N2)NC(=O)[C@H](CCCNC(=N)N)NC(=O)[C@H](CO)NC(=O)[C@H](CCCCN)NC(=O)[C@@H]2CCCN2C(=O)[C@H]([C@@H](C)CC)NC(=O)[C@H]([C@@H](C)O)NC(=O)[C@H](CC(=O)O)NC1=O`, for which the results for the IC50 in assay [1], in assay [2] and in assay [3] were 0.056 nM, 0.038 nM and 0.104 nM, respectively.

Consider `CC[C@H](C)[C@@H]1NC(=O)[C@@H](NC(=O)[C@H](CO)NC(=O)[C@@H](N)CCCNC(=N)N)CSSC[C@@H](C(=O)O)NC(=O)[C@H]([C@@H](C)O)NC(=O)CNC(=O)[C@@H]2CSSC[C@@H]3NC(=O)[C@H](CCC(N)=O)NC(=O)[C@H](Cc4ccccc4)NC(=O)[C@H](C)NC(=O)[C@H]([C@@H](C)O)NC(=O)[C@H](CSSC[C@H](NC(=O)[C@H](Cc4ccccc4)NC(=O)[C@H](CO)NC(=O)[C@H](CC(C)C)NC(=O)[C@H](CCCNC(=N)N)NC(=O)[C@H](Cc4ccc(O)cc4)NC(=O)[C@H](CCCCN)NC(=O)[C@H](CCSC)NC(=O)[C@H](CO)NC(=O)[C@H](CCCNC(=N)N)NC(=O)[C@H](CCCCN)NC3=O)C(=O)N[C@@H](CCCNC(=N)N)C(=O)N[C@@H](CCCCN)C(=O)N[C@@H]([C@@H](C)O)C(=O)N2)NC(=O)[C@H](CCCNC(=N)N)NC(=O)[C@H](CO)NC(=O)[C@H](CCCCN)NC(=O)[C@@H]2CCCN2C(=O)[C@H]([C@@H](C)CC)NC(=O)[C@H]([C@@H](C)O)NC(=O)[C@H](CC(=O)O)NC1=O`, for which the results for the concentration for half-maximal inhibition (IC50) in assay [1], in assay [2] and in assay [3] were 0.282 nM, 0.114 nM and 0.095 nM, respectively.

For the molecule `CC[C@H](C)[C@@H]1NC(=O)[C@@H](NC(=O)[C@H](CO)NC(=O)[C@@H](N)CCCNC(=N)N)CSSC[C@@H](C(=O)O)NC(=O)[C@H]([C@@H](C)O)NC(=O)CNC(=O)[C@@H]2CSSC[C@@H]3NC(=O)[C@H](CCC(N)=O)NC(=O)[C@H](Cc4ccccc4)NC(=O)[C@H](C)NC(=O)[C@H]([C@@H](C)O)NC(=O)[C@H](CSSC[C@H](NC(=O)[C@H](Cc4ccccc4)NC(=O)[C@H](CO)NC(=O)[C@H](CC(C)C)NC(=O)[C@H](CCCNC(=N)N)NC(=O)[C@H](Cc4ccc(O)cc4)NC(=O)[C@H](CCCCN)NC(=O)[C@H](CCSC)NC(=O)[C@H](CCCNC(=N)N)NC(=O)[C@H](Cc4cnc[nH]4)NC(=O)[C@H](CCCCN)NC3=O)C(=O)N[C@@H](CCCNC(=N)N)C(=O)N[C@@H](CCCCN)C(=O)N[C@@H]([C@@H](C)O)C(=O)N2)NC(=O)[C@H](CCCNC(=N)N)NC(=O)[C@H](CO)NC(=O)[C@H](CCCCN)NC(=O)[C@@H]2CCCN2C(=O)[C@H]([C@@H](C)CC)NC(=O)[C@H]([C@@H](C)O)NC(=O)[C@H](CC(=O)O)NC1=O`, the half-inhibitory concentration (IC50) in assay [1] was 40.3 nM; in assay [2] it was 25.3 nM; in assay [3], over 3.33 nM.

As for `CC[C@H](C)[C@@H]1NC(=O)[C@@H](NC(=O)[C@H](CO)NC(=O)[C@@H](N)CCCNC(=N)N)CSSC[C@@H](C(=O)O)NC(=O)[C@H]([C@@H](C)O)NC(=O)CNC(=O)[C@@H]2CSSC[C@@H]3NC(=O)[C@H](CCC(N)=O)NC(=O)[C@H](Cc4ccccc4)NC(=O)[C@H](C)NC(=O)[C@H]([C@@H](C)O)NC(=O)[C@H](CSSC[C@H](NC(=O)[C@H](Cc4ccccc4)NC(=O)[C@H](CO)NC(=O)[C@H](CC(C)C)NC(=O)[C@H](CCCNC(=N)N)NC(=O)[C@H](Cc4ccc(O)cc4)NC(=O)[C@H](CCCCN)NC(=O)[C@H](CCCNC(=N)N)NC(=O)[C@H](CO)NC(=O)[C@H](Cc4cnc[nH]4)NC(=O)[C@H](CCCCN)NC3=O)C(=O)N[C@@H](CCCNC(=N)N)C(=O)N[C@@H](CCCCN)C(=O)N[C@@H]([C@@H](C)O)C(=O)N2)NC(=O)[C@H](CCCNC(=N)N)NC(=O)[C@H](CO)NC(=O)[C@H](CCCCN)NC(=O)[C@@H]2CCCN2C(=O)[C@H]([C@@H](C)CC)NC(=O)[C@H]([C@@H](C)O)NC(=O)[C@H](CC(=O)O)NC1=O`, the IC50 in assay [1] amounted to 3.08 nM; in assay [2], 1.49 nM; in assay [3], 0.259 nM.

As to `CC[C@H](C)[C@@H]1NC(=O)[C@@H](NC(=O)[C@H](CO)NC(=O)[C@@H](N)CCCNC(=N)N)CSSC[C@@H](C(=O)O)NC(=O)[C@H]([C@@H](C)O)NC(=O)CNC(=O)[C@@H]2CSSC[C@@H]3NC(=O)[C@H](CCC(N)=O)NC(=O)[C@H](Cc4ccccc4)NC(=O)[C@H](C)NC(=O)[C@H]([C@@H](C)O)NC(=O)[C@H](CSSC[C@H](NC(=O)[C@H](Cc4ccccc4)NC(=O)[C@H](CO)NC(=O)[C@H](CC(C)C)NC(=O)[C@H](CCCNC(=N)N)NC(=O)[C@H](Cc4ccc(O)cc4)NC(=O)[C@H](CCCNC(=N)N)NC(=O)[C@H](CCSC)NC(=O)[C@H](CO)NC(=O)[C@H](Cc4cnc[nH]4)NC(=O)[C@H](CCCCN)NC3=O)C(=O)N[C@@H](CCCNC(=N)N)C(=O)N[C@@H](CCCCN)C(=O)N[C@@H]([C@@H](C)O)C(=O)N2)NC(=O)[C@H](CCCNC(=N)N)NC(=O)[C@H](CO)NC(=O)[C@H](CCCCN)NC(=O)[C@@H]2CCCN2C(=O)[C@H]([C@@H](C)CC)NC(=O)[C@H]([C@@H](C)O)NC(=O)[C@H](CC(=O)O)NC1=O`, the IC50 in assay [1] was over 100 nM; in assay [2], over 100 nM; in assay [3], over 3.33 nM.

For the molecule `CC[C@H](C)[C@@H]1NC(=O)[C@@H](NC(=O)[C@H](CO)NC(=O)[C@@H](N)CCCNC(=N)N)CSSC[C@@H](C(=O)O)NC(=O)[C@H]([C@@H](C)O)NC(=O)CNC(=O)[C@@H]2CSSC[C@@H]3NC(=O)[C@H](CCC(N)=O)NC(=O)[C@H](Cc4ccccc4)NC(=O)[C@H](C)NC(=O)[C@H]([C@@H](C)O)NC(=O)[C@H](CSSC[C@H](NC(=O)[C@H](Cc4ccccc4)NC(=O)[C@H](CO)NC(=O)[C@H](CC(C)C)NC(=O)[C@H](CCCNC(=N)N)NC(=O)[C@H](CCCNC(=N)N)NC(=O)[C@H](CCCCN)NC(=O)[C@H](CCSC)NC(=O)[C@H](CO)NC(=O)[C@H](Cc4cnc[nH]4)NC(=O)[C@H](CCCCN)NC3=O)C(=O)N[C@@H](CCCNC(=N)N)C(=O)N[C@@H](CCCCN)C(=O)N[C@@H]([C@@H](C)O)C(=O)N2)NC(=O)[C@H](CCCNC(=N)N)NC(=O)[C@H](CO)NC(=O)[C@H](CCCCN)NC(=O)[C@@H]2CCCN2C(=O)[C@H]([C@@H](C)CC)NC(=O)[C@H]([C@@H](C)O)NC(=O)[C@H](CC(=O)O)NC1=O`, the results for the half-inhibitory concentration (IC50) in assay [1], in assay [2] and in assay [3] were over 100 nM, over 100 nM and over 3.33 nM, respectively.

(Values after ChEMBL document CHEMBL3608278 (J Med Chem, 2015).)
